Patent publication US20100190717A1, “USE OF MELANIN CONCENTRATING HORMONE AND MET-ENKEPHALIN AS THERAPEUTIC AGENTS” (priority 2007, published 2010)
Ends that are not written are not given here.

Assays:
HCMV strain AD169 = experiment: HCMV plaque formation assay in MRC-5 cells; settings: for inhibition of HCMV plaque formation compared to the virus control: 10 micrograms per ml, 7-10 days
[1] = system: Interferon-γ (IFN-γ) in spleen cells; experiment: Th1/Th2 cytokine profiling assay: IFN-γ; assay type: cell-based, Balb/c mice; settings: 10 micrograms per ml; Ovalbumin-restimulated spleen cells, 72 hours
[2] = system: LPS-induced TNF-alpha production in human macrophages; experiment: TNF alpha production assay (LPS-stimulated macrophages, ELISA); assay type: cell-based; settings: 10 micrograms per ml; LPS 200 ng/ml, overnight
Source text: Not stimulated macrophages served as negative background control.

[3] = system: Interleukin-2 (IL-2) in spleen cells; experiment: Th1/Th2 cytokine profiling assay: IL-2; assay type: cell-based, Balb/c mice; settings: 10 micrograms per ml; Ovalbumin-restimulated spleen cells, 72 hours
[4] = system: Primary Human endothelial cells (HUVEC); experiment: Endothelial cell migration assay; assay type: cell-based; settings: 10 micrograms per ml, 22 hours
Procedure: Thereafter, designated concentration of testing peptides—10 micrograms per ml—was added in duplicate wells.

[5] = system: Tumor Necrosis Factor-α (TNF-α) in spleen cells; experiment: Th1/Th2 cytokine profiling assay: TNF-α; assay type: cell-based, Balb/c mice; settings: 10 micrograms per ml; Ovalbumin-restimulated spleen cells, 72 hours
[6] = system: hepatitis B virus (HBV) ayw strain; experiment: HBV assay in HepG2-2.2.15 cells (TaqMan PCR of secreted HBV DNA); assay type: cell-based; settings: 10 micrograms per ml; HepG2-2.2.15, six days
Human A549 cells = experiment: Apoptosis prevention assay (C2 ceramide, Annexin-5); assay type: cell-based; settings: 10 micrograms per ml, A549, 30 min pretreatment
Procedure: Human A549 cells (carcinomic human alveolar basal epithelial cells) were utilized in the experiments employing the Annexin-5 apoptosis assay. […] A549 cells were pretreated for 30 min with test peptides—10 micrograms per ml—followed by the exposure to C2 ceramide.

[7] = system: Interleukin-5 (IL-5) in spleen cells; experiment: Th1/Th2 cytokine profiling assay: IL-5; assay type: cell-based, Balb/c mice; settings: 10 micrograms per ml; Ovalbumin-restimulated spleen cells, 72 hours
Source text: The Balb/c mice (originated in 1923, it is a popular strain and is used in many different research disciplines. Also classified as an inbred from the production of 20 or more successive brother-sister matings, the Balb/c mouse is albino and small in size) were immunized on Days 1, 15, and 29 with Ovalbumin (Ovalbumin is the main protein found in egg white, commonly used to stimulate an immunological reaction in test animals) in PBS (5 micrograms/injection). On day 50, spleens of the mice were harvested (3 weeks after last boost with Ovalbumin). Cells were cultured (2×10^5/well in triplicate) and incubated with culture medium or test peptides—10 micrograms per ml—for 30 min. Thereafter, additional Ovalbumin was added to the cells at 10 micrograms/ml for in vitro restimulation of the cells. 72 hours later, cell supernatants were harvested and assayed using the Becton Dickinson Mouse Th1/Th2 Cytokine CBA Kit. This kit can be used to measure Interleukin-2 (IL-2), Interleukin-4 (IL-4), Interleukin-5 (IL-5), Interferon-γ (IFN-γ), and Tumor Necrosis Factor-α (TNF-α) protein levels in a single sample. The kit performance has been optimized for analysis of physiologically relevant concentrations (μg/ml levels) of specific cytokine proteins in tissue culture supernatants and serum samples.

[8] = system: Human Peripheral Blood Mononuclear Cells (PBMC), B cell proliferation; experiment: B cell proliferation assay (SAC plus Interleukin-2 stimulated PBMC, 3H-thymidine); assay type: cell-based; settings: 10 micrograms per ml
Procedure: Human Peripheral Blood Mononuclear Cells (PBMC) were obtained from normal human donors. The B cell proliferation was induced by stimulation of the cells with the B cell mitogen Staphylococcus aureus Cowans I (SAC) plus Interleukin-2, either in the absence (positive proliferation control), or in the presence of test peptides—10 micrograms per ml—to examine their effects on the B cell response. 10^5/well PBMC were plated in 96-well microtiter plates and assayed in duplicate with the peptides. […] At the end of incubation time, the plates were harvested and the cells counted by liquid scintillation for the incorporation of ^3H-thymidine as a measure of B cell proliferation.

[9] = system: Interleukin-4 (IL-4) in spleen cells; experiment: Th1/Th2 cytokine profiling assay: IL-4; assay type: cell-based, Balb/c mice; settings: 10 micrograms per ml; Ovalbumin-restimulated spleen cells, 72 hours
HUVEC = experiment: Endothelial tube formation assay; assay type: cell-based, human; settings: 10 micrograms per ml, 20 hours
Source text: Positive control was vehicle only.

Compound | antiviral activity of positive control compound (HCMV) (HCMV strain AD169; positive control) | IFNγ spleen cells; TH1 response (% of control) [1] | inhibition of the LPS-induced TNF-alpha production in human macrophages [2] [%] | IL-2 spleen cells (% of control) [3] | inhibition of HCMV plaque formation compared to the virus control (HCMV strain AD169) | inhibition of the migration of human endothelial cells [4] [%] | TNF-a spleen cells; TH1 response (% of control) [5] | inhibition of HBV replication on tested liver cells [6] | prevention (reduction) of the ceramide-induced apoptosis on human lung cells (Human A549 cells) | IL-5 spleen cells; TH2 response (% of control) [7] | decrease of the proliferation of specifically stimulated human B-cells [8] [%] | IL-4 spleen cells; TH2 response (% of control) [9] | inhibition of the tube formation of endothelial cells (HUVEC) [%]
Nc1nc(O)c2ncn(COC(CO)CO)c2n1 [Ganciclovir, reference compound] | expected levels of antiviral activity |  |  |  |  |  |  |  |  |  |  |  | 
Asp-Phe-Asp-Met-Leu-Arg-Cys-Met-Leu-Gly-Arg-Val-Tyr-Arg-Pro-Cys-Trp-Gln-Val-OH (DFDMLRCMLGRVYRPCWQV-OH; ends and bridges not checked) [peptide 1, melanin concentrating hormone (MCH), commercially available peptide] |  | 90.4 % of control | 20.6 | 42.3 % of control | did not inhibit | 39 | 92.1 % of control | no effect | did not show any reducing or increasing effect | 78.8 % of control | 20.9 | 85.9 % of control | 19
Tyr-Gly-Gly-Phe-Met-OH [peptide 2] |  | 64.9 % of control | 28.4 | 86.3 % of control | did not inhibit |  | 89.3 % of control | no effect | 17.4% | 67.5 % of control | 12.0 | 100.4 % of control | 25
